The values that follow are results of earlier work, collected in patent publication US20160018671A1, “DRUG DELIVERY FROM CONTACT LENSES WITH A FLUIDIC MODULE” (ONEFOCUS TECHNOLOGY, LLC, priority 2013, published 2016).

For the data set the following is noted: contact lenses passively impregnated with the drug; for IOP reductions: compared with conventional therapy.

Where a name gives a salt, the structure may show the parent alone.

For `CC(C)(C)NC[C@H](O)COc1nsnc1N1CCOCC1` [timolol maleate], the toxicity entry is recorded as “no toxicity” and the IOP reductions entry is given as “equivalent to conventional therapy”.

With brimonidine tartrate, the toxicity entry was “no toxicity” and the IOP reductions result is reported as “equivalent to conventional therapy”.
